The assay deals with L1210 leukemia cells. Kind of assay: cell proliferation test on L1210 leukemia cells (C14-thymidine incorporation). It counts as cell-based. The conditions noted are these: Mus musculus, 72 hours, 37° C., 5% of CO2, concentration which reduces incorporation of radioactive thymidine by 50% vs control. As for the experimental part: The inhibiting action was determined (cell proliferation test) as described below:
[…] cells in the exponential growth phase (5×10^3 /ml in RPMI 1640) are incubated in a microtiter plate with different concentrations of the test substance for 72 hours (37° C., 5% of CO2, 95% relative atmospheric humidity). Controls comprise cells incubated only with fresh medium. All the determinations are carried out as 4-fold determinations. After 65 hours, 50 μl of C14-thymidine (1.5 μC/ml) are added in order to radiolabel the cell DNA. After incubation for 7 hours, the cells are filtered off with suction and the DNA is precipitated with 5% strength trichloroacetic acid and washed with water and methanol in succession. After drying at 50° C., the radioactivity incorporated into the DNA is determined after addition of 5 ml of scintillation liquid. The results are stated as ratios of the scintillation index after incubation with the test substance in percent of the untreated control. From the measurement values thus obtained, the dose/effect curve is determined, and the IC50, that is to say the concentration which reduces the incorporation of radioactive thymidine by 50% under test conditions in comparison with the control, is determined graphically.
A general note: Uptake of a labelled nucleoside into DNA is a usual measure of proliferation.

In general, IC50 refers to the point on the concentration scale where inhibition reaches its midpoint. `CCC1(O)CC(OC2CC(N(C)C)C(OC3CCC(OC4C=CC(=O)C(C)O4)C(C)O3)C(C)O2)c2c(O)c3c(c(O)c2C1OC1CC(N(C)C)C(O)C(C)O1)C(=O)c1cccc(O)c1C3=O` (stereo not shown) [cytorhodin SE gluconate]: the half-maximal inhibitory concentration (IC50) was determined as 6 ng/mL.

The values above are taken from patent US4795808A, “Anthracycline tetrasaccharides” (Hoechst Aktiengesellschaft, priority 1985, dated 1989).
